Assays:
[1] = molecular target: PIK3CD (human) (UniProt O00329); experiment: KINOMEscan competition binding; details: compound 10.0 µM
[2] = molecular target: MAP2K2 (human) (UniProt P36507); experiment: KINOMEscan competition binding; details: compound 10.0 µM
[3] = test system: EGFR (human), P00533 [747-751 del / S ins]; experiment: KINOMEscan competition binding; details: compound 10.0 µM
[4] = molecular target: MAP2K4 (human) (UniProt P45985); experiment: KINOMEscan competition binding; details: compound 10.0 µM
[5] = molecular target: PIK3C2B (human) (UniProt O00750); experiment: KINOMEscan competition binding; details: compound 10.0 µM
[6] = molecular target: PIK3CB (human) (UniProt P42338); experiment: KINOMEscan competition binding; details: compound 10.0 µM
[7] = test system: EGFR (human), P00533 [P753S; 747-752 del]; experiment: KINOMEscan competition binding; details: compound 10.0 µM
[8] = test system: EGFR (human), P00533 [G719S]; experiment: KINOMEscan competition binding; details: compound 10.0 µM
[9] = molecular target: PIM2 (human) (UniProt Q9P1W9); experiment: SelectScreen, TR FRET
PIM2 (human), sequence (Q9P1W9 whole entry, looked up): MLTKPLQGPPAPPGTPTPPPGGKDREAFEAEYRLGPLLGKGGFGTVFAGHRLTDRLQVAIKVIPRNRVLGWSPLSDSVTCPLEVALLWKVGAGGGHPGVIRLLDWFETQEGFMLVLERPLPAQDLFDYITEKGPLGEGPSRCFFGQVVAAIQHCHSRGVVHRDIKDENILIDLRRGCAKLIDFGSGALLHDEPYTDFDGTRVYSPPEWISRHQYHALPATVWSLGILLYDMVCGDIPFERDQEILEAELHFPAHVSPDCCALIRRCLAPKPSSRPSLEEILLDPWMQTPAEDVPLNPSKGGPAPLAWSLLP

[10] = molecular target: PIM1 (human) (UniProt P11309); experiment: SelectScreen, TR FRET
PIM1 (human), sequence (P11309 whole entry, looked up): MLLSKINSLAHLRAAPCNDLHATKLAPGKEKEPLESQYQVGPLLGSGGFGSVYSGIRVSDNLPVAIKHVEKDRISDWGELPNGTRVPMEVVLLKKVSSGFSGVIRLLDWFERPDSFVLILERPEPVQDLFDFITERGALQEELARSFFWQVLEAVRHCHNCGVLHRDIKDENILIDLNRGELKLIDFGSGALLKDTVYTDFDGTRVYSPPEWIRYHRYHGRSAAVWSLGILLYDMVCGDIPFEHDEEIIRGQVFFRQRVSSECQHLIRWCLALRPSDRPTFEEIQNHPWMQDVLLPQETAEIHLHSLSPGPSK

[11] = molecular target: MAPK10 (human) (UniProt P53779); experiment: KINOMEscan competition binding; details: compound 10.0 µM
[12] = molecular target: TAOK3 (human) (UniProt Q9H2K8); experiment: KINOMEscan competition binding; details: compound 10.0 µM
[13] = molecular target: MAPK8 (human) (UniProt P45983); experiment: KINOMEscan competition binding; details: compound 10.0 µM
[14] = molecular target: STK16 (human) (UniProt O75716); experiment: KINOMEscan competition binding; details: compound 10.0 µM
STK16 (human), sequence (O75716 whole entry, looked up): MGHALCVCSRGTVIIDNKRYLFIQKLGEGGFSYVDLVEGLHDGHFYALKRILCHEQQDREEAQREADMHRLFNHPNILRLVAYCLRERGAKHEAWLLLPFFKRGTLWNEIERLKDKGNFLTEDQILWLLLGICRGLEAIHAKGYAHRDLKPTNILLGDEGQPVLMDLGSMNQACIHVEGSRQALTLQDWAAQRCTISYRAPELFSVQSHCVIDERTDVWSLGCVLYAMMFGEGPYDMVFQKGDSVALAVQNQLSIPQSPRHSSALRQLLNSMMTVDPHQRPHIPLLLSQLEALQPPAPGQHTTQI

[15] = molecular target: CAMK1D (human) (UniProt Q8IU85); experiment: KINOMEscan competition binding; details: compound 10.0 µM
[16] = molecular target: GSK3A (human) (UniProt P49840); experiment: KINOMEscan competition binding; details: compound 10.0 µM
[17] = molecular target: LATS2 (human) (UniProt Q9NRM7); experiment: KINOMEscan competition binding; details: compound 10.0 µM
[18] = molecular target: TYK2 JH2 pseudokinase (human) (UniProt P29597); experiment: KINOMEscan competition binding; details: compound 10.0 µM
TYK2 JH2 pseudokinase (human), sequence (P29597 whole entry, looked up): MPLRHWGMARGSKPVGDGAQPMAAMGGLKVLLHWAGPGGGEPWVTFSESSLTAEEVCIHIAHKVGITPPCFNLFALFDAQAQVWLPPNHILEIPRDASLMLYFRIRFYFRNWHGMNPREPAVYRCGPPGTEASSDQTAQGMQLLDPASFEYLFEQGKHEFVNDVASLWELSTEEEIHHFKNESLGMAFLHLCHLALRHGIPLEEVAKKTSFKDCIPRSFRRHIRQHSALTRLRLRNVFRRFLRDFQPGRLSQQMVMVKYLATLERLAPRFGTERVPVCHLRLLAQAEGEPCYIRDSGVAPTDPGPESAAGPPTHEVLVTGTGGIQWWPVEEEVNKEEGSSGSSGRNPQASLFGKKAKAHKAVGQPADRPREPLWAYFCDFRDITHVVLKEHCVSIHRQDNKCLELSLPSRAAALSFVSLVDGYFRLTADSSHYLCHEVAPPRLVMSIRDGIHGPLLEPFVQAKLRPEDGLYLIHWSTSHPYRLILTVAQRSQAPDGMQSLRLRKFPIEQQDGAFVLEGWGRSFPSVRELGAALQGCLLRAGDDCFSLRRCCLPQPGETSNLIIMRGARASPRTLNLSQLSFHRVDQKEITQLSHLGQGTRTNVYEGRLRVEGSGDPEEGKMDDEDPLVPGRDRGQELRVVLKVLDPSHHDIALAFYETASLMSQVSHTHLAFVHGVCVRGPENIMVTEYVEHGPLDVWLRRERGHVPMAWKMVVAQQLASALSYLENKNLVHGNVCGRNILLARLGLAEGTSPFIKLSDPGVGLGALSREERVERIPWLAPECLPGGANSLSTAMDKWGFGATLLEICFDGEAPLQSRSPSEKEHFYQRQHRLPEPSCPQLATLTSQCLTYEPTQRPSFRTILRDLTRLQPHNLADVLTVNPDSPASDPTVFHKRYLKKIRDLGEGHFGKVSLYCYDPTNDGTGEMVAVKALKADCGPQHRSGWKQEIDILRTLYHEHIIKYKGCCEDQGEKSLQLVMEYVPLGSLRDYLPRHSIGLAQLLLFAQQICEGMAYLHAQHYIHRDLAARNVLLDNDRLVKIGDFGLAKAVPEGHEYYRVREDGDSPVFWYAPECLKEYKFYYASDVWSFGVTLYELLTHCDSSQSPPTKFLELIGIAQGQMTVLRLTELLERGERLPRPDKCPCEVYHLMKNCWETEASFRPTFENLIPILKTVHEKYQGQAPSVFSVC

[19] = molecular target: PIM3 (human) (UniProt Q86V86); experiment: KINOMEscan competition binding; details: compound 10.0 µM
[20] = molecular target: PAK7 (human) (UniProt Q9P286); experiment: KINOMEscan competition binding; details: compound 10.0 µM
[21] = molecular target: PAK4 (human) (UniProt O96013); experiment: KINOMEscan competition binding; details: compound 10.0 µM
[22] = molecular target: DAPK3 (human) (UniProt O43293); experiment: KINOMEscan competition binding; details: compound 10.0 µM
[23] = molecular target: GAK (human) (UniProt O14976); experiment: KINOMEscan competition binding; details: compound 10.0 µM
[24] = molecular target: PAK6 (human) (UniProt Q9NQU5); experiment: KINOMEscan competition binding; details: compound 10.0 µM
[25] = molecular target: PLK4 (human) (UniProt O00444); experiment: KINOMEscan competition binding; details: compound 10.0 µM
[26] = molecular target: CSK (human) (UniProt P41240); experiment: KINOMEscan competition binding; details: compound 10.0 µM
[27] = molecular target: AAK1 (human) (UniProt Q2M2I8); experiment: KINOMEscan competition binding; details: compound 10.0 µM
[28] = molecular target: MYLK (human) (UniProt Q15746); experiment: KINOMEscan competition binding; details: compound 10.0 µM
MYLK (human), sequence (Q15746 whole entry, looked up): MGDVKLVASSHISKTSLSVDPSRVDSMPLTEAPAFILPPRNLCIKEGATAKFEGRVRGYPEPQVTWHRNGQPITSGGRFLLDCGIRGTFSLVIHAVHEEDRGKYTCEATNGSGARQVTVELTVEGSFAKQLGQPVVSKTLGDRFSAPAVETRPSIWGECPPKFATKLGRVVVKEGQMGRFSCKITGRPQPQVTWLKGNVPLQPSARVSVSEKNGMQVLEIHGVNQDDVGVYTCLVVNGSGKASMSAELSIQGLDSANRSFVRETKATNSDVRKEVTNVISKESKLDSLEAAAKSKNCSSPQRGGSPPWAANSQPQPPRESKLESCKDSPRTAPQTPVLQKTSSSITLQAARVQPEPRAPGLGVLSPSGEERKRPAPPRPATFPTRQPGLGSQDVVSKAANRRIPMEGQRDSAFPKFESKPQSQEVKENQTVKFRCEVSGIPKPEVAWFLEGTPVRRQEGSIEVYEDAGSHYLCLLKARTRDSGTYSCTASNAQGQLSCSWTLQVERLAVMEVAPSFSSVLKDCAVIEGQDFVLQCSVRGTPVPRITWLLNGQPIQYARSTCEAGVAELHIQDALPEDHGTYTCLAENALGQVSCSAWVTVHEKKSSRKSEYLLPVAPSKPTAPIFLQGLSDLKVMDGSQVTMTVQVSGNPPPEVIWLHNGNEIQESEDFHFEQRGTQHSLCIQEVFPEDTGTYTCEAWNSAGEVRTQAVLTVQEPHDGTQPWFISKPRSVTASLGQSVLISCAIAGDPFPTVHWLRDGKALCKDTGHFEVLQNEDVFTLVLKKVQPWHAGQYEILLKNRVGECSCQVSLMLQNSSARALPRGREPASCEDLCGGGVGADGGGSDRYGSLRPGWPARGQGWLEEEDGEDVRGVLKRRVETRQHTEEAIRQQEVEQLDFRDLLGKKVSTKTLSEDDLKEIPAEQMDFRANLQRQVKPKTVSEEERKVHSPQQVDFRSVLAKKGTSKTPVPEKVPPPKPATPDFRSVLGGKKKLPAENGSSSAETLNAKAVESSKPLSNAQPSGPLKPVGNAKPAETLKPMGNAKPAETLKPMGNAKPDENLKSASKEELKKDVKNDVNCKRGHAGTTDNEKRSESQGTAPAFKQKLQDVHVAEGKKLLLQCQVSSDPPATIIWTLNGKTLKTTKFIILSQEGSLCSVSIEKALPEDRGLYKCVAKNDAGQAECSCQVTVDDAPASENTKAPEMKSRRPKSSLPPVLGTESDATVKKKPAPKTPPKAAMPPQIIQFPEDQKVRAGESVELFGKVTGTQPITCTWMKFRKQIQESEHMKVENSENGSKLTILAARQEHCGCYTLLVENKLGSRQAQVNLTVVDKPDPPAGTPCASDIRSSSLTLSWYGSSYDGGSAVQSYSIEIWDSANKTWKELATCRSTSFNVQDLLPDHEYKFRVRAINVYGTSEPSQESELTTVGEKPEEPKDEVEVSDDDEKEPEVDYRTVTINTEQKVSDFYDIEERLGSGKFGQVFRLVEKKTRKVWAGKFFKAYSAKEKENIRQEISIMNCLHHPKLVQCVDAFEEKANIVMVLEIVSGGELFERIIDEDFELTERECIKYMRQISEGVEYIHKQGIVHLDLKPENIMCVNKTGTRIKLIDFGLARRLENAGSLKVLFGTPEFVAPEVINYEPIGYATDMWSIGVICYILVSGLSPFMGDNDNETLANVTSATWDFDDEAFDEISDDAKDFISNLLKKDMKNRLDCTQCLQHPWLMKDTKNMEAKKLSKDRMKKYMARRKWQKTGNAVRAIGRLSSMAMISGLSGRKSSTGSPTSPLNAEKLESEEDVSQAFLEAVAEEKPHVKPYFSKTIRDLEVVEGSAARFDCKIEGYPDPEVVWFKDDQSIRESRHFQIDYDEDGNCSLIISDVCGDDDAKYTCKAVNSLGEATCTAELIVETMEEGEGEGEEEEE

[29] = molecular target: ACVR2B (human) (UniProt Q13705); experiment: KINOMEscan competition binding; details: compound 10.0 µM
[30] = molecular target: CSNK2A2 (human) (UniProt P19784); experiment: KINOMEscan competition binding; details: compound 10.0 µM
CSNK2A2 (human), sequence (P19784 whole entry, looked up): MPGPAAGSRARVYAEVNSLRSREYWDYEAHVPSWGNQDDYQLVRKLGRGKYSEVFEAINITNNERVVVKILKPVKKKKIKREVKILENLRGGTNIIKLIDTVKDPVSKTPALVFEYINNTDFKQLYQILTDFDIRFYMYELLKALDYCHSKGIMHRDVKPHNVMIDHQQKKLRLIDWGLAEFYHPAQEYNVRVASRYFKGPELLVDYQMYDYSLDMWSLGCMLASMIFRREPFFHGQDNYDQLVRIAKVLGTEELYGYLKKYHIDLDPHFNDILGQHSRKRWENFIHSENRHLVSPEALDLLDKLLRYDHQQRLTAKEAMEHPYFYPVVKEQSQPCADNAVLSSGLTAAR

[31] = molecular target: STK17B (human) (UniProt O94768); experiment: KINOMEscan competition binding; details: compound 10.0 µM
[32] = molecular target: CAMK1 (human) (UniProt Q14012); experiment: KINOMEscan competition binding; details: compound 10.0 µM
[33] = molecular target: MAP2K3 (human) (UniProt P46734); experiment: KINOMEscan competition binding; details: compound 10.0 µM
[34] = molecular target: HIPK1 (human) (UniProt Q86Z02); experiment: KINOMEscan competition binding; details: compound 10.0 µM
[35] = molecular target: PIM2 (human) (UniProt Q9P1W9); experiment: KINOMEscan competition binding; details: compound 10.0 µM
[36] = molecular target: TTK (human) (UniProt P33981); experiment: KINOMEscan competition binding; details: compound 10.0 µM
[37] = molecular target: TGFBR2 (human) (UniProt P37173); experiment: KINOMEscan competition binding; details: compound 10.0 µM
[38] = molecular target: MAP3K7 (human) (UniProt O43318); experiment: KINOMEscan competition binding; details: compound 10.0 µM
[39] = molecular target: CLK2 (human) (UniProt P49760); experiment: KINOMEscan competition binding; details: compound 10.0 µM
CLK2 (human), sequence (P49760 whole entry, looked up): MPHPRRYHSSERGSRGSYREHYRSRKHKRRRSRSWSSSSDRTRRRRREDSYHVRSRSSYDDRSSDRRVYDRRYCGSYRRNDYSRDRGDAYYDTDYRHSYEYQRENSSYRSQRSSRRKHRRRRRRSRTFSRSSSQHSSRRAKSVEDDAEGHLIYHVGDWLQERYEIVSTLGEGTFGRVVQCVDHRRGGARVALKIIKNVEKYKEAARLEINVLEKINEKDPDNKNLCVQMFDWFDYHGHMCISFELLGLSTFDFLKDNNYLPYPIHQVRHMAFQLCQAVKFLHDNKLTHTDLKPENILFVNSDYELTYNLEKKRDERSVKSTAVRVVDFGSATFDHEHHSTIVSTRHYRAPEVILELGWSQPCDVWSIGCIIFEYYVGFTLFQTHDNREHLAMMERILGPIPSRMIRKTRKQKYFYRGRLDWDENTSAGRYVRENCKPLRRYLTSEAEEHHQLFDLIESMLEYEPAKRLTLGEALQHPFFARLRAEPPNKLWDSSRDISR

[40] = molecular target: STK17A (human) (UniProt Q9UEE5); experiment: KINOMEscan competition binding; details: compound 10.0 µM
[41] = molecular target: PHKG2 (human) (UniProt P15735); experiment: KINOMEscan competition binding; details: compound 10.0 µM
[42] = molecular target: DAPK1 (human) (UniProt P53355); experiment: KINOMEscan competition binding; details: compound 10.0 µM
[43] = molecular target: DDR1 (human) (UniProt Q08345); experiment: KINOMEscan competition binding; details: compound 10.0 µM
[44] = molecular target: EPHA3 (human) (UniProt P29320); experiment: KINOMEscan competition binding; details: compound 10.0 µM
[45] = molecular target: TAOK1 (human) (UniProt Q7L7X3); experiment: KINOMEscan competition binding; details: compound 10.0 µM
[46] = molecular target: CAMK2B (human) (UniProt Q13554); experiment: KINOMEscan competition binding; details: compound 10.0 µM
[47] = molecular target: RIPK4 (human) (UniProt P57078); experiment: KINOMEscan competition binding; details: compound 10.0 µM
[48] = molecular target: PIM1 (human) (UniProt P11309); experiment: KINOMEscan competition binding; details: compound 10.0 µM
[49] = molecular target: DAPK2 (human) (UniProt Q9UIK4); experiment: KINOMEscan competition binding; details: compound 10.0 µM

O=C1NC(=O)C(=Cc2ccc(-c3ccc(S(=O)(=O)N4CCNCC4)cc3)o2)C(=O)N1
kinase still bound, per cent of control [1]: 0% | kinase still bound, per cent of control [2]: 17% | kinase still bound, per cent of control [3]: 17% | kinase still bound, per cent of control [4]: 12% | kinase still bound, per cent of control [5]: 0.6% | kinase still bound, per cent of control [6]: 0% | kinase still bound, per cent of control [7]: 16% | kinase still bound, per cent of control [8]: 6.9%

Cc1cn(-c2cc(NC(=O)c3cccc4cc(-c5ccc(/C=C6\SC(=N)NC6=O)o5)ccc34)cc(C(F)(F)F)c2)cn1
IC50 [9]: 662 nM | IC50 [10]: 5050 nM | kinase still bound, per cent of control [11]: 16% | kinase still bound, per cent of control [12]: 5.6% | kinase still bound, per cent of control [13]: 14% | kinase still bound, per cent of control [14]: 22% | kinase still bound, per cent of control [15]: 29% | kinase still bound, per cent of control [16]: 32% | kinase still bound, per cent of control [17]: 31% | kinase still bound, per cent of control [18]: 2.6% | kinase still bound, per cent of control [19]: 1.9% | kinase still bound, per cent of control [20]: 34% | kinase still bound, per cent of control [21]: 29% | kinase still bound, per cent of control [22]: 15% | kinase still bound, per cent of control [23]: 28% | kinase still bound, per cent of control [24]: 30% | kinase still bound, per cent of control [25]: 1% | kinase still bound, per cent of control [26]: 30% | kinase still bound, per cent of control [27]: 26% | kinase still bound, per cent of control [28]: 21% | kinase still bound, per cent of control [29]: 24% | kinase still bound, per cent of control [30]: 34% | kinase still bound, per cent of control [31]: 0.6% | kinase still bound, per cent of control [32]: 20% | kinase still bound, per cent of control [33]: 20% | kinase still bound, per cent of control [34]: 0.15% | kinase still bound, per cent of control [35]: 0.5% | kinase still bound, per cent of control [36]: 18% | kinase still bound, per cent of control [37]: 11% | kinase still bound, per cent of control [38]: 13% | kinase still bound, per cent of control [39]: 21% | kinase still bound, per cent of control [40]: 2.4% | kinase still bound, per cent of control [41]: 29% | kinase still bound, per cent of control [42]: 32% | kinase still bound, per cent of control [43]: 22% | kinase still bound, per cent of control [44]: 32% | kinase still bound, per cent of control [45]: 5.8% | kinase still bound, per cent of control [46]: 29% | kinase still bound, per cent of control [47]: 1% | kinase still bound, per cent of control [48]: 1.8% | kinase still bound, per cent of control [49]: 7.1%

— the kinase profiling compilation of Christmann-Franck et al. (2016)
